Data as given in patent US20120151636A1, “Peptides for Stimulating Plant Disease Resistance” (The Regents of the University of California, priority 2009, published 2012).
Entries after “also recorded” stand apart in the source; their conditions may differ.

Legend:
[1] = biological target: XA21 (in leaves of the TP309-XA21 transgenic rice line 106-17-3-37) (rice) (UniProt Q1MX30); assay: cell-based or functional assay
TP309-XA21 rice leaves = system: TP309-XA21 rice leaves; design: species or system Oryza sativa ssp. japonica; conditions: in vivo
OsFLS2 = OsFLS2 (Oryza sativa subsp. japonica, UniProt Q0JA29); conditions: in rice; cited from earlier work
Myc-XA21 = biological target: T1, Myc-XA21 (Oryza sativa subsp. indica, UniProt Q1MX30); assay: Ax21/XA21 binding assay (cross-linking and co-immunoprecipitation); design: species or system rice; conditions: 5- to 10-fold excess competitor over HA-tagged AxY^S22; Myc-XA21 leaf extracts
T1 construct: expressed in transfected cells; host or cells: leaf extract of a Kitaake (Oryza sativa ssp. japonica) transgenic rice line carrying Myc-XA21
T1 sequence (Q1MX30 24-1025): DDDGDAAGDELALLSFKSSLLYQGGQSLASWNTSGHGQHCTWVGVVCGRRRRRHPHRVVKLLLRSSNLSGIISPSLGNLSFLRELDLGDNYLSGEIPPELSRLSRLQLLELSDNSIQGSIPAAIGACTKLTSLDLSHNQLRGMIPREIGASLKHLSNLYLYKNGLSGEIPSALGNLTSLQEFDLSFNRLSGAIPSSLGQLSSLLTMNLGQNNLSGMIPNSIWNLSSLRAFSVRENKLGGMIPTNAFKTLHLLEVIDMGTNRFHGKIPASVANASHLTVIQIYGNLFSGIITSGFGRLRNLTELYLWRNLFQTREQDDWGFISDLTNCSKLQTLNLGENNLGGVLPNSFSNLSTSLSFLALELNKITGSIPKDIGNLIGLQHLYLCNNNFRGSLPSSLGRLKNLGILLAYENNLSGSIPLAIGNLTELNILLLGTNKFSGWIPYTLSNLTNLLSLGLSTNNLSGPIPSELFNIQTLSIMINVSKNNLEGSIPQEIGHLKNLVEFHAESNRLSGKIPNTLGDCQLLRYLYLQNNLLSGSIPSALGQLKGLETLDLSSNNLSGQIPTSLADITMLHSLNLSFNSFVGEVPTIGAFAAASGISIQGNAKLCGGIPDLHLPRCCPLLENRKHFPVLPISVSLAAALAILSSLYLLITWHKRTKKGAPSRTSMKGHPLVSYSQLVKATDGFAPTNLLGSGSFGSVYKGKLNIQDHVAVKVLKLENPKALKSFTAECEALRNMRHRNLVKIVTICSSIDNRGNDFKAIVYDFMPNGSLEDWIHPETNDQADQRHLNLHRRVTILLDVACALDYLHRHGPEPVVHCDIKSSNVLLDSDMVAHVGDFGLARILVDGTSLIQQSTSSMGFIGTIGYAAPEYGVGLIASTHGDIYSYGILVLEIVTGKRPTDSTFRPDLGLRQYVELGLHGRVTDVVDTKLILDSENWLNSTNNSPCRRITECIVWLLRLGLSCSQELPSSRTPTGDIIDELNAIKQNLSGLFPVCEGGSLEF
Protocol: Binding of the C terminal HA tagged AxY^S22 (AxY^S22-HA) to N-terminal tagged Myc XA21 (Myc-XA21) complex was carried out using cross-linked analysis according to methods described previously (C. Zipfel et al., Cell 125, 749 (2006); Z. Bauer, L. Gomez-Gomez, T. Boller, G. Felix, J Biol Chem 276, 45669 (2001); D. Chinchilla, Z. Bauer, M. Regenass, T. Boller, G. Felix, Plant Cell 18, 465 (2006)). Fully expanded rice leaves were harvested from five-week old Myc-XA21 transgenic and Kitaake control plants. Total proteins were extracted from five g of leaf tissue in 10 ml of ice-cold extraction buffer [0.15 M NaCl, 0.01 M Na-phosphate pH 7.2, 2 mM EDTA, 0.1% Triton X-100, 10 mM β-mercaptoethanol, 20 mM NaF, 1 mM PMSF, 1% Protease cocktail (Sigma), 2 μg/ml leupeptin, 2 μg/ml antipain, and 2 μg/ml aprotinin] […] Duplicate protein gel blots were analyzed with anti-Myc and anti-HA antibodies, respectively.

PXO99ΔraxST = system: PXO99ΔraxST; design: species or system Xanthomonas oryzae pv. oryzae; conditions: in vivo

OsFLS2, sequence (Q0JA29 42-1183): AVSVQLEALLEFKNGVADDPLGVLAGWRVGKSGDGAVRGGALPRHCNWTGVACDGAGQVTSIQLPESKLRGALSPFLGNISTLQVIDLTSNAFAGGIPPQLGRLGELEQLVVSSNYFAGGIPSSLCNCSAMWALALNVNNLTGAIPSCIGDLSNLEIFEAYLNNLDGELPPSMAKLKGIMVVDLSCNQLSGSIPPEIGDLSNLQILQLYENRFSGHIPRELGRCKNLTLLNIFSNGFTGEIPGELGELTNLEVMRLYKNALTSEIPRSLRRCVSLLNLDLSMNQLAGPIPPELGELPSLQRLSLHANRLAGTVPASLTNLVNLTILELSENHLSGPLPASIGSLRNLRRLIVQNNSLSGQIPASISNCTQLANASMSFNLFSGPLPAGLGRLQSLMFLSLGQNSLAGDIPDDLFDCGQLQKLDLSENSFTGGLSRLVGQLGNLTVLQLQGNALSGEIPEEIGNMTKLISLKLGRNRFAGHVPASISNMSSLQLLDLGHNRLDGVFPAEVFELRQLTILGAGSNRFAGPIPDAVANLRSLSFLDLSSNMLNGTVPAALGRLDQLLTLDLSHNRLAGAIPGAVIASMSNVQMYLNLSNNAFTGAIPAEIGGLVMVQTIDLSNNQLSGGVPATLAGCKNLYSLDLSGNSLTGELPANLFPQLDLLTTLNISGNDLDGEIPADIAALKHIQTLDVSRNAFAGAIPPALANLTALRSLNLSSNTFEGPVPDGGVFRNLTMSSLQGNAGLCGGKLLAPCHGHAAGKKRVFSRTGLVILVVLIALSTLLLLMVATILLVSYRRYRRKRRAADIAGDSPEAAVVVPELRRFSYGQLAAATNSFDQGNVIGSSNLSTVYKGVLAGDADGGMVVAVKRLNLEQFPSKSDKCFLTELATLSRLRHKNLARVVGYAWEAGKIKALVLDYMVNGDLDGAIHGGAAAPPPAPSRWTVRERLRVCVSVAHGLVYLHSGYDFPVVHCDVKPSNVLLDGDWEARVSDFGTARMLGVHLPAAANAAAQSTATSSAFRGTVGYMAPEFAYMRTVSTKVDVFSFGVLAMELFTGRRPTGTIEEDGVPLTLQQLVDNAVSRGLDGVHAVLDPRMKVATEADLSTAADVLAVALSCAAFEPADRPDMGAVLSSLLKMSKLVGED

AxY^S22 peptide (no HA tag)
concentration sufficient for PAMP activity (lesion length in TP309-XA21 rice) [1]: 1 µM | reduction in PXO99ΔraxST population growth (growth curve analysis) [1]: 1000 fold

Ax21: Activator of Xa21-mediated immunity; 194 aa protein encoded by PXO_03968
extent of induced resistance (TP309-XA21 rice leaves): robust resistance

QRLSSGLRINSAKDDAAGLAIS (Acidovorax avenae flg22; listed as Acidovorax avenae) [flg22ave, flg22 from the rice pathogen Acidovorax avenae, reference compound]
concentration that can induce OsFLS2-mediated response (OsFLS2): 0.5 µM | effect of competitor on labeling of the 140 kDa band (AxY^S22/XA21 binding) (Myc-XA21): no effect on AxY^S22/XA21 binding

AENLS(sulfated Y)NFVEGDYVRTP [axY^S22]
activation of XA21-mediated immunity (lesion length) (TP309-XA21 rice leaves): activated XA21-mediated immunity; also recorded: sufficient to activate XA21 mediated immunity | concentration sufficient for PAMP activity (TP309-XA21 rice leaves): 1 µM | reduction in PXO99ΔraxST population growth (PXO99ΔraxST): 1000 fold | triggering of XA21-mediated immunity (growth curve analysis) (PXO99ΔraxST): triggered resistance to PXO99ΔraxST; also recorded: triggers immunity in TP309-XA21 rice | effect of competitor on labeling of the 140 kDa band (AxY^S22/XA21 binding) (Myc-XA21): suppressed the labeling of this band

AENLSYNFVEGDYVRTP [axY22]
triggering of XA21-mediated immunity (growth curve analysis) (PXO99ΔraxST): unable to trigger Xa21-mediated immunity; also recorded: no detectable activity
